# Patent publication US4346076A, “Bis-tetrazoylmethyl substituted cephalosporin antibiotics” (Eli Lilly and Company, priority 1980, dated 1982)
# Read-outs that look alike come from different tables or passages of the source.
# How the values were obtained:
# Assay in all cases: in vitro antibacterial activity, agar dilution
# Format in all cases: cell-based
# [1] = tested on: Bordetella bronchoseptica; conditions: strain 16, read-out: Minimum Inhibitory Concentration
# Excerpt: (§1) The bis-tetrazol-thiomethyl substituted cephalosporins of this invention are broad spectrum antibiotics which inhibit the growth of both gram positive and gram negative microorganisms which are pathogenic to man and animals. […] The following Table 2 lists the minimum inhibitory concentrations of representative compounds of the invention.
# (§2) The data in TABLE 2 were obtained in the agar dilution test method using Mueller-Hinton agar containing two percent Supplement C (Difco). Serial two-fold dilutions were run with the highest concentration on test at 128 mcg/ml.
# Citrobacter freundii = conditions: strain CF17, read-out: Minimum Inhibitory Concentration
# Excerpt: as §1, §2
# Enterobacter aerogenes = conditions: for MIC: Klebsiella aerogenes, read-out: Minimum Inhibitory Concentration
# Excerpt: as §1, §2
# Enterobacter cloacae = tested on: Enterobacter cloacae
# Excerpt: as §1, §2
# Escherichia coli = tested on: Escherichia coli
# Excerpt: as §1, §2
# Haemophilus influenzae = conditions: for MIC: Haemophilus influenzae, read-out: Minimum Inhibitory Concentration
# Excerpt: as §1, §2
# Klebsiella sp. = tested on: Klebsiella sp.
# Excerpt: as §1, §2
# Proteus inconstans = conditions: Providencia alcalifaciens; strain PR33; read-out: Minimum Inhibitory Concentration
# Excerpt: as §1, §2
# Proteus morganii = conditions: Morganella morganii, read-out: Minimum Inhibitory Concentration
# Excerpt: as §1, §2
# Proteus rettgeri = conditions: Providencia rettgeri, read-out: Minimum Inhibitory Concentration
# Excerpt: as §1, §2
# Pseudomonas aeruginosa = tested on: Pseudomonas aeruginosa
# Excerpt: as §1, §2
# Salmonella sp. = tested on: Salmonella sp.
# Excerpt: as §1, §2
# Serratia marcescens = tested on: Serratia marcescens
# Excerpt: as §1, §2
# Shigella sonnei = conditions: strain N9, read-out: Minimum Inhibitory Concentration
# Excerpt: as §1, §2
# Staphylococcus aureus = tested on: Staphylococcus aureus
# Excerpt: as §1, §2
# [2] = tested on: Staphylococcus epidermidis
# Excerpt: as §1, §2
# Streptococcus Group A = conditions: strain C203; read-out: Minimum Inhibitory Concentration
# Excerpt: as §1, §2
# Streptococcus Group D = conditions: read-out: Minimum Inhibitory Concentration
# Excerpt: as §1, §2
# Streptococcus pneumoniae = conditions: strain PARK, read-out: Minimum Inhibitory Concentration
# Excerpt: as §1, §2
# [3] = strain 265A, read-out: Minimum Inhibitory Concentration
# [4] = strain EB5, read-out: Minimum Inhibitory Concentration
# [5] = strain EC14, read-out: Minimum Inhibitory Concentration
# [6] = strain N10, read-out: Minimum Inhibitory Concentration
# [7] = strain KAE, read-out: Minimum Inhibitory Concentration
# [8] = strain X26, read-out: Minimum Inhibitory Concentration
# [9] = strain Ps18, read-out: Minimum Inhibitory Concentration
# [10] = strain X239, read-out: Minimum Inhibitory Concentration
# [11] = strain X528, read-out: Minimum Inhibitory Concentration
# [12] = strain 1335, read-out: Minimum Inhibitory Concentration
# [13] = strain X514, read-out: Minimum Inhibitory Concentration
# [14] = strain SE3, read-out: Minimum Inhibitory Concentration
# [15] = read-out: Minimum Inhibitory Concentration
# [16] = strain V41, read-out: Minimum Inhibitory Concentration
# [17] = strain X1.1, read-out: Minimum Inhibitory Concentration
# [18] = strain X400, read-out: Minimum Inhibitory Concentration
# [19] = strain EPI1, read-out: Minimum Inhibitory Concentration
# [20] = strain EPI2, read-out: Minimum Inhibitory Concentration
SMILES,MIC [1],MIC (Citrobacter freundii),MIC (Enterobacter aerogenes; strain EB17),MIC (Enterobacter cloacae; [3]),MIC (Enterobacter cloacae; [4]),MIC (Escherichia coli; [5]),MIC (Escherichia coli; [6]),MIC (Klebsiella sp.; [7]),MIC (Klebsiella sp.; [8]),MIC (Proteus inconstans),MIC (Proteus rettgeri; strain C24),MIC (Proteus rettgeri; strain PR7),MIC (Pseudomonas aeruginosa; [9]),MIC (Pseudomonas aeruginosa; [10]),MIC (Pseudomonas aeruginosa; [11]),MIC (Salmonella sp.; [12]),MIC (Salmonella sp.; [13]),MIC (Serratia marcescens; [14]),MIC (Shigella sonnei),MIC (Staphylococcus aureus; [15]),further results
"CO/N=C(\C(=O)N[C@@H]1C(=O)N2C(C(=O)O)=C(CSc3nnn(Cc4nnn[nH]4)n3)CS[C@H]12)c1csc(N)n1 [G, syn 7β-[α-methoximino-α-(2-amino-1,3-thiazol-4-yl)-acetamido]-3-[2-(1H-tetrazol-5-ylmethyl)-2H-tetrazol-5-ylthiomethyl]-3-cephem-4-carboxylic acid]",64 µg/mL,64 µg/mL,0.25 µg/mL,64 µg/mL,2 µg/mL,0.125 µg/mL,0.25 µg/mL,8 µg/mL,0.125 µg/mL,1 µg/mL,2 µg/mL,0.03 µg/mL,32 µg/mL,16 µg/mL,16 µg/mL,0.5 µg/mL,0.125 µg/mL,2 µg/mL,2 µg/mL,32 µg/mL,"MIC (Enterobacter aerogenes; strain C32): 0.25 µg/mL; MIC (Enterobacter aerogenes; strain X68): 0.06 µg/mL; MIC (Escherichia coli; strain TEM, read-out: Minimum Inhibitory Concentration): 0.125 µg/mL; MIC (Haemophilus influenzae; strain 251, resistant strain): 0.06 µg/mL; MIC (Haemophilus influenzae; strain Brun, sensitive strain): 0.06 µg/mL; MIC (Proteus morganii; strain PR15): 0.5 µg/mL; MIC (Serratia marcescens; strain X93, read-out: Minimum Inhibitory Concentration): 0.25 µg/mL; MIC (Staphylococcus aureus; [16]): 8 µg/mL; MIC (Staphylococcus aureus; [17]): 4 µg/mL; MIC (Staphylococcus aureus; [18]): > 128 µg/mL; MIC [2, 19]: 32 µg/mL; MIC [2, 20]: 64 µg/mL; MIC (Streptococcus Group A): 0.03 µg/mL; MIC (Streptococcus Group D; strain 9960): > 128 µg/mL; MIC (Streptococcus Group D; strain X66): > 128 µg/mL; MIC (Streptococcus pneumoniae): 0.03 µg/mL"
CO/N=C(\C(=O)N[C@@H]1C(=O)N2C(C(=O)O)=C(CSc3nnnn3Cc3nnnn3C)CS[C@H]12)c1csc(N)n1 [F],128 µg/mL,16 µg/mL,0.25 µg/mL,32 µg/mL,1 µg/mL,0.06 µg/mL,0.25 µg/mL,4 µg/mL,0.06 µg/mL,0.5 µg/mL,0.25 µg/mL,0.03 µg/mL,32 µg/mL,32 µg/mL,32 µg/mL,0.5 µg/mL,0.25 µg/mL,0.5 µg/mL,0.125 µg/mL,8 µg/mL,"MIC (Enterobacter aerogenes): 0.125 µg/mL; Minimum Inhibitory Concentration (Enterobacter aerogenes; strain C32): .125 µg/mL; MIC (Escherichia coli; [15]): 0.125 µg/mL; MIC (Haemophilus influenzae): 0.125 µg/mL; Minimum Inhibitory Concentration (Haemophilus influenzae; strain 251, resistant strain): .125 µg/mL; MIC (Proteus morganii): 0.125 µg/mL; MIC (Serratia marcescens; [15]): 0.125 µg/mL; MIC (Staphylococcus aureus; [16]): 4 µg/mL; MIC (Staphylococcus aureus; [17]): 2 µg/mL; MIC (Staphylococcus aureus; [18]): > 128 µg/mL; MIC [2, 19]: 8 µg/mL; MIC [2, 20]: 32 µg/mL; MIC (Streptococcus Group A): 0.03 µg/mL; MIC (Streptococcus Group D; strain 9960): 16 µg/mL; MIC (Streptococcus Group D; strain X66): > 128 µg/mL; MIC (Streptococcus pneumoniae): 0.015 µg/mL"
